Measured values as given in patent US4352802A, “Bicyclo[3.3.1]nonyl-benzamide” (Beecham Group Limited, priority 1980, dated 1982).

Key:
Type in all cases: in vivo
Dopamine Receptor [1] = experiment: Inhibition of apomorphine induced climbing in the mouse (dopamine receptor blocking activity in the central nervous system); conditions: p.o., apomorphine 1 mg/kg s.c., not necessarily the lowest active dose
Experimental: II. Dopamine Receptor Blocking Activity in the Central Nervous System
Compounds were tested for inhibition of apomorphine induced climbing in the mouse. The test is based on that described by Protais, P., Constantin, J. and Schwartz J. C. (1976), Psychopharmacology, 50, 1-6.
Apomorphine 1 mg/kg s.c. induces mice to climb the wall of a wire cage (inverted food hopper-11×7.5×18 cm high). Mice acclimatised in their home cages in groups of 5 are placed under the hoppers immediately after the injection of apomorphine 1 mg/kg s.c. At 10,20 and 30 minutes after injection climbing behaviour is scored. The mice are observed for 30 seconds and scored according to the position they spend the majority of time in, score 0--four paws on floor of cage; score 1--[…]; score 2--all paws on wall of cage. The scores at all 3 times and for each mouse are summed and mice drug treated orally compared to mice receiving apomorphine only. A saline only treated group is also included and any score, generally <5% of maximum taken into account.

[2] = tested on: vomiting response to apomorphine HCl; experiment: Anti-emetic activity in the dog (apomorphine-induced vomiting); conditions: Canis lupus familiaris, sc, 30 minutes prior to apomorphine HCl 0.1 mg/kg s.c.
Experimental: I. Anti-emetic activity in the dog
Compounds were administered subcutaneously 30 minutes prior to administration of a standard dose of apomorphine HCl (0.1 mg/kg subcutaneously) and the vomiting response compared to that obtained when the same animals were dosed with apomorphine HCl and vehicle only.

[3] = tested on: inhibitory effect of 6,7-ADTN on gastric motility; experiment: Gastric motility testing in the rat (reversal of 6,7-ADTN inhibition); conditions: conscious chronic gastric fistula rat, 1 mg/kg s.c., 10 minutes after 6,7-ADTN 1 mg/kg s.c.
Experimental: III. Gastric Motility Testing in the rat
The compounds were tested for ability to reverse the inhibitory effect of 6,7-ADTN on gastric motility as recorded by an open tipped catheter in the conscious chronic gastric fistula rat. Administration of 1 mg/kg s.c. of 6,7-ADTN reduced basal gastric motor activity and this was reversed by the administration of the compound administered 10 minutes after the 6,7-ADTN. […] For subcutaneous testing the compound was dissolved in water by the addition of tartaric acid (1/2 mole per mole of compound).

Dopamine Receptor [4] = experiment: Inhibition of apomorphine induced climbing in the mouse (dopamine receptor blocking activity in the central nervous system); conditions: s.c., apomorphine 1 mg/kg s.c., not necessarily the lowest active dose

SMILES: COc1cc(N)c(Cl)cc1C(=O)N[C@@H]1C[C@H]2COC[C@@H](C1)N2Cc1ccc(Cl)c(Cl)c1 [Compound 20, 2-Methoxy-5-chloro-4-amino-[N-(9-(3,4-dichlorobenzyl)-9-aza-3-oxabicyclo(3,3,1)nonan-7β-yl)]benzamide]
- Active Dose (inhibition of apomorphine induced climbing) (Dopamine Receptor [1]): 10 mg/kg

SMILES: COc1cc(N)c(Cl)cc1C(=O)N[C@@H]1C[C@H]2COC[C@@H](C1)N2Cc1cccs1 [Compound 24, 2-Methoxy-5-chloro-4-amino-[N-(9-(2-thenyl)-9-aza-3-oxabicyclo(3,3,1)nonan-7β-yl)]benzamide]
- Active Dose (inhibition of apomorphine induced climbing) (Dopamine Receptor [1]): 10 mg/kg

SMILES: COc1cc(N)c(Cl)cc1C(=O)N[C@@H]1C[C@H]2COC[C@@H](C1)N2Cc1cccc(C(F)(F)F)c1 [Compound 21, 2-Methoxy-5-chloro-4-amino-[N-(9-(3-trifluoromethylbenzyl)-9-aza-3-oxabicyclo(3,3,1)nonan-7β-yl)]benzamide]
- Active Dose (inhibition of apomorphine induced climbing) (Dopamine Receptor [1]): 50 mg/kg

SMILES: COc1ccc(CN2[C@@H]3COC[C@H]2C[C@H](NC(=O)c2cc(Cl)c(N)cc2OC)C3)cc1 [Compound 19, 2-Methoxy-5-chloro-4-amino-[N-(9-(4-methoxybenzyl)9-aza-3-oxabicyclo(3,3,1)nonan-7β-yl)]benzamide]
- Active Dose (inhibition of apomorphine induced climbing) (Dopamine Receptor [1]): 10 mg/kg

SMILES: COc1cc(N)c(Cl)cc1C(=O)N[C@@H]1C[C@H]2COC[C@@H](C1)N2CCC(C)C [Compound 25, 2-Methoxy-5-chloro-4-amino-[N-(9-(3-methylbutyl)-9-aza-3-oxabicyclo(3,3,1)nonan-7β-yl)]benzamide]
- Active Dose (inhibition of apomorphine induced climbing) (Dopamine Receptor [1]): 10 mg/kg

SMILES: CCCCCCN1[C@@H]2COC[C@H]1C[C@H](NC(=O)c1cc(Cl)c(N)cc1OC)C2 [Compound 23, 2-Methoxy-5-chloro-4-amino[N-(9-(n-hexyl)-9-aza-3-oxabicyclo(3,3,1)nonan-7β-yl)]benzamide]
- Active Dose (inhibition of apomorphine induced climbing) (Dopamine Receptor [1]): 10 mg/kg

SMILES: COc1cc(NC(C)=O)c(Cl)cc1C(=O)N[C@@H]1C[C@H]2COC[C@@H](C1)N2Cc1ccccc1 [Compound 1, 2-Methoxy-5-chloro-4-acetamido-N-[9-benzyl-9-aza-3-oxabicyclo(3,3,1)nonan-7β-yl]-benzamide]
- Active Dose (inhibition of apomorphine induced climbing) (Dopamine Receptor [1]): 2 mg/kg

SMILES: COc1ccc(S(C)(=O)=O)cc1C(=O)N[C@@H]1C[C@H]2CSC[C@@H](C1)N2Cc1ccccc1 [Compound 5, 2-Methoxy-5-methylsulphonyl-N-[9-benzyl-9-aza-3-thiabicyclo (3,3,1)nonan-7β-yl]benzamide]
- ED50 [2]: 0.1 mg/kg
- Reversal of the action of 6,7-ADTN on gastric motility [3]: reversed the action of 6,7-ADTN
- Active Dose (inhibition of apomorphine induced climbing) (Dopamine Receptor [4]): 50 mg/kg

SMILES: COc1cccc(C(=O)N[C@@H]2C[C@H]3COC[C@@H](C2)N3Cc2ccccc2)c1OC [Compound 6, 2,3-Dimethoxyj-[N-(9-benzyl-9-aza-3-oxabicyclo(3,3,1)nonan-7β-yl)]benzamide]
- Active Dose (inhibition of apomorphine induced climbing) (Dopamine Receptor [1]): 2 mg/kg

SMILES: COc1cc(N)c(Cl)cc1C(=O)N[C@@H]1C[C@H]2COC[C@@H](C1)N2Cc1ccc(C)cc1 [Compound 22, 2-Methoxy-5-chloro-4-amino-[N-(9-(4-methylbenzyl)-9-aza-3-oxabicyclo(3,3,1)nonan-7β-yl)]benzamide]
- Active Dose (inhibition of apomorphine induced climbing) (Dopamine Receptor [1]): 10 mg/kg

SMILES: COc1cc(N)c(Cl)cc1C(=O)N[C@@H]1C[C@H]2COC[C@@H](C1)N2Cc1ccccc1 [Compound 2, 2-Methoxy-5-chloro-4-amino-N-[9-benzyl-9-aza-3-oxabicyclo(3,3,1)nonan-7β-yl]-benzamide]
- ED50 [2]: 0.005 mg/kg
- Active Dose (inhibition of apomorphine induced climbing) (Dopamine Receptor [1]): 1 mg/kg
- Reversal of the action of 6,7-ADTN on gastric motility [3]: reversed the action of 6,7-ADTN

SMILES: COc1cc(N)c(Cl)cc1C(=O)N[C@@H]1C[C@H]2COC[C@@H](C1)N2Cc1ccc(Cl)cc1 [Compound 18, 2-Methoxy-5-chloro-4-amino-[N-(9-(4-chlorobenzyl)-9-aza-3-oxabicyclo(3,3,1)nonan-7β-yl)]benzamide]
- Active Dose (inhibition of apomorphine induced climbing) (Dopamine Receptor [1]): 10 mg/kg

SMILES: COc1cc(N)c(Cl)cc1C(=O)N[C@@H]1C[C@H]2COC[C@@H](C1)N2CC1CCCCC1 [Compound 26]
- Active Dose (inhibition of apomorphine induced climbing) (Dopamine Receptor [1]): 10 mg/kg
